Assay results as given in ChEMBL document CHEMBL2429719, “Indolo[3,2-a]carbazoles from a deep-water sponge of the genus Asteropus” (2013).
≈ marks a conversion by molar mass, not a printed value. Calls of active or inactive are those of the source. No cut-off for these calls is given here.

What was measured:
NCI/ADR-RES = assay: Cytotoxicity against human NCI/ADR-RES cells at 5 ug/ml after 2 to 3 days by MTT assay; assay type: functional, cell-based
PANC-1 = assay: Cytotoxicity against human PANC1 cells at 5 ug/ml after 2 to 3 days by MTT assay; assay type: functional, cell-based
Staphylococcus aureus [1] = assay: Antimicrobial activity against methicillin-resistant Staphylococcus aureus by broth microdilution method; assay type: functional
Candida albicans [2] = assay: Antimicrobial activity against Candida albicans by broth microdilution method; assay type: functional
Staphylococcus aureus [3] = assay: Antimicrobial activity against methicillin-resistant Staphylococcus aureus up to 50 ug/ml by broth microdilution method; assay type: functional, organism-based
Candida albicans [4] = assay: Antimicrobial activity against Candida albicans up to 50 ug/ml by broth microdilution method; assay type: functional, organism-based

SMILES	Activity (NCI/ADR-RES)	Activity (PANC-1)	MIC (Staphylococcus aureus [1])	MIC (Candida albicans [2])	growth inhibition (GI) (Staphylococcus aureus [3])	growth inhibition (GI) (Candida albicans [4])
Oc1cc2[nH]c3ccc4c5ccc(Br)cc5[nH]c4c3c2cc1O	inactive	inactive	50 µg/mL (≈ 136 µM)	25 µg/mL (≈ 68.1 µM)		
O=S(=O)(O)Oc1cc2[nH]c3ccc4c5ccc(Br)cc5[nH]c4c3c2cc1O	inactive	inactive			inactive	inactive
